This is an account of results in US7714146B2, “Azulene-oxindole compounds as multiple-kinase inhibitors and useful as anticancer agents” (Industrial Technology Research Institute, priority 2006, dated 2010).

Structures are written as SMILES.

What all share (format): biochemical
Test [1] deals with T1, human FLT-3 (Arg571-Ser993) (Homo sapiens, UniProt P36888).
T1 construct: human FLT-3 (Arg571-Ser993); GST (N); purchased Cell Signaling Technology; host or cells: baculovirus expression system
T1 sequence (P36888 571-993): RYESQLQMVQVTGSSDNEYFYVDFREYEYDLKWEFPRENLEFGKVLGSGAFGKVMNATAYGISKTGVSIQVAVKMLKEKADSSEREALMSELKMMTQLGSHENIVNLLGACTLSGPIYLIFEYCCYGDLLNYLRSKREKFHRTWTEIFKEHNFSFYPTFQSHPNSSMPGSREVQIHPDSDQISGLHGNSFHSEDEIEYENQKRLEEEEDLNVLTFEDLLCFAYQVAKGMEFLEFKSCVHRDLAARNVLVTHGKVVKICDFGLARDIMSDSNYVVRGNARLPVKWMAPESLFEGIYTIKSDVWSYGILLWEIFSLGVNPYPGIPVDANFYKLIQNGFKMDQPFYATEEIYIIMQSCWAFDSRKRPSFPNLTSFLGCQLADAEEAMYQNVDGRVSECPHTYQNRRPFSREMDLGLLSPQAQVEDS
Put plainly: FLT-3 kinase assay (HTScan kit, DELFIA). To be noted: for inhibition at 1 µM: compound at 1 μM, read-out: FLT-3 1 μM, % of inhibition relative to control; for inhibition at 0.1 µM: compound at 0.1 μM, read-out: FLT-3 0.1 μM, % of inhibition relative to control; for IC50: read-out: FLT-3 kinase inhibition (IC50). On the procedure:
(§1) Compounds 1-100 were treated for their efficacy in inhibiting activities of FLT-3, c-KIT, KDR/Flk-1, PDGFR-beta, EGFR, and PKC kinases by biochemical DELFIA (Dissociation Enhanced Lanthanide FIA) assays according to the procedure described below. The assays were conducted by, Division of Cell Engineering, Biomedical Engineering Research Laboratories, Industrial Technology Research Institute, Bldg. 53, 195, sec. 4, Chung Hsing Rd. Chutung, Hsinchu, Taiwan 310, R.O.C.
(§2) The FLT-3 assay was conducted following the protocol described in Protocol for HTScan® FLT-3 Kinase Assay Kit (Cell Signaling Technology®). The assay was conducted under the following conditions: FLT-3 source: The GST-kinase fusion protein was produced using a baculovirus expression system with a construct expressing human FLT-3 (Arg571-Ser993) (GenBank accession No. NM_004119) with an amino-terminal GST tag, substrate: 1.5 μM Gastrin Precursor Biotinylated Peptide (with Tyr87 as phosphorylation site), vehicle: 1% DMSO, pre-incubation time/temperature: 5 minutes at room temperature, incubation time/temperature: 30 minutes at room temperature, incubation buffer: 60 mM HEPES pH 7.5, 5 mM MgCl2, 5 mM MnCl2, 3 μM Na3VO4, 1.25 mM DTT, 20 μM ATP, and quantitative method: DELFIA® Assay.

Test [2] addresses T2, human c-KIT (Thr544-Val976) (Homo sapiens, UniProt P10721).
T2 construct: human c-KIT (Thr544-Val976); GST (N); purchased Cell Signaling Technology; host or cells: baculovirus expression system
Put plainly: c-KIT kinase assay (HTScan kit, DELFIA). Particulars: for inhibition at 0.1 µM: compound at 0.1 μM, read-out: c-KIT 0.1 μM, % of inhibition relative to control; for inhibition at 1 µM: compound at 1 μM, read-out: c-KIT 1 μM, % of inhibition relative to control; for IC50: read-out: c-KIT kinase inhibition (IC50). Here is the method:
as §1
as §2, with “c-KIT” for “FLT-3”, “GST-c-KIT” for “GST-kinase”, “c-KIT (Thr544-Val976)” for “FLT-3 (Arg571-Ser993) (GenBank accession No. NM_004119)”, “This biotinylated peptide contains the residues surrounding Tyr-996 of KDR,” for “Gastrin Precursor Biotinylated Peptide (with Tyr87 as phosphorylation site),”

Test [3] concerns the target T3, human VEGFR-2 (Val789-Val1356) (Homo sapiens, UniProt P35968).
T3 construct: human VEGFR-2 (Val789-Val1356); GST (N); purchased Cell Signaling Technology; host or cells: baculovirus expression system
In words: KDR kinase assay (HTScan VEGFR-2 kit, DELFIA). Particulars: for inhibition at 0.1 µM: compound at 0.1 μM, read-out: KDR 0.1 μM, % of inhibition relative to control; for inhibition at 1 µM: compound at 1 μM, read-out: KDR 1 μM, % of inhibition relative to control. On the procedure: as §1
The KDR assay was conducted following the protocol described in Protocol for HTScan® VEGFR-2 Kinase Assay Kit (Cell Signaling Technology®). The assay was conducted under the following conditions: KDR source: The GST-Kinase fusion protein was produced using a baculovirus expression system with a construct expressing human VEGFR-2 (Val789-Val1356) (GenBank Accession No. NM_002253) with an amino-terminal GST tag, substrate: 1.5 μM Gastrin Precursor Biotinylated Peptide (with Tyr87 as phosphorylation site), vehicle: 1% DMSO, pre-incubation time/temperature: 5 minutes at room temperature, incubation time/temperature: 30 minutes at room temperature, incubation buffer: 60 mM HEPES pH 7.5, 5 mM MgCl2, 5 mM MnCl2, 3 μM Na3VO4, 1.25 mM DTT, 20 μM ATP, and quantitative method: DELFIA® Assay.

T2 sequence (P10721 544-976): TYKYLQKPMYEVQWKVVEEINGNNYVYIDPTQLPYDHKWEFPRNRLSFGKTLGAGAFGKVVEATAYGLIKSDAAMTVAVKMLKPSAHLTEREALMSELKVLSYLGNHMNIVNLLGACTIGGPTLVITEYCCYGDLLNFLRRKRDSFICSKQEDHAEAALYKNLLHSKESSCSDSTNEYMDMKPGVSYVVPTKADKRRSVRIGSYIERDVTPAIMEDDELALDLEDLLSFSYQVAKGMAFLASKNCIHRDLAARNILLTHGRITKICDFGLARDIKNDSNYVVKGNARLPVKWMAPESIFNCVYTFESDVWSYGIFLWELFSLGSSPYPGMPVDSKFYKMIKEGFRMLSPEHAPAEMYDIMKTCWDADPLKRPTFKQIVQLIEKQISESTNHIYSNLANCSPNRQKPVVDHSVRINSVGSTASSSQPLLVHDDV
T3 sequence (P35968 789-1356): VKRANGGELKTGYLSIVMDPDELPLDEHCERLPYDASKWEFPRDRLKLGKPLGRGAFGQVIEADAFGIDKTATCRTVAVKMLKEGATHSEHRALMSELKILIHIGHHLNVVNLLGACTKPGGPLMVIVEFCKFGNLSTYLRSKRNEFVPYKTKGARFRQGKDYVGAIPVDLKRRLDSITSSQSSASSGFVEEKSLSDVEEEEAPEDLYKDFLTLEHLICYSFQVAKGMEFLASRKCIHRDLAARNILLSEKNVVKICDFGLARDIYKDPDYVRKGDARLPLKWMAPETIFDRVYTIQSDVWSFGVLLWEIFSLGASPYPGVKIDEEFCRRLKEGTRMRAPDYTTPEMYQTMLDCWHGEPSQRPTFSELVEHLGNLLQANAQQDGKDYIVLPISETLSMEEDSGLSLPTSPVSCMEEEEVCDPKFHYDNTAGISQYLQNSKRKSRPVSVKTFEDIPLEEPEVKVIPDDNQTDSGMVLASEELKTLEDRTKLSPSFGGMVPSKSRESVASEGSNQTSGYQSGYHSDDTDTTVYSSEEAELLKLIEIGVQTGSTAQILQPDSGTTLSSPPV

One may read the inhibition as the change of the read-out against control, counted positive when it falls. `O=C1Nc2cc(Br)ccc2/C1=C/c1ccc2cccccc1-2` [Compound 29, 3-Azulen-1-ylmethylene-6-bromo-1,3-dihydro-indol-2-one]: the values for the inhibition at 1 µM in test [1], in test [2] and in test [3] were 53.3%, 46.1% and 48.2%, respectively. In addition, the results for the inhibition at 0.1 µM in test [2] and in test [3] were 46.1% and 18.5%, respectively.
As for `Cc1cc(/C=C2/C(=O)N(Cc3ccc(C#N)cc3)c3ccccc32)c2c(C)ccc(C(C)C)cc1-2` [Compound 74, 4-[3-(5-Isopropyl-3,8-dimethyl-azulen-1-ylmethylene)-2-oxo-2,3-dihydro-indol-1-ylmethyl]-benzonitrile], the inhibition at 0.1 µM in test [1] is 45.8%; in test [3], 5.1%. For the same compound, the inhibition at 1 µM in test [1] was 69.4%; in test [3], 70.9%.
Turning to `CN(C)Cc1cc(/C=C2/C(=O)Nc3ccc(F)cc32)c2cccccc1-2` [Compound 65, 3-(3-Dimethylaminomethyl-azulen-1-ylmethylene)-5-fluoro-1,3-dihydro-indol-2-one], the values for the inhibition at 0.1 µM in test [1], in test [2] and in test [3] were 23.3%, 51.3% and 46.8%, respectively. Also, the inhibition at 1 µM in test [1] was found to be 30.9%; in test [2], 51.3%; in test [3], 46.9%.
For `Cc1cc(/C=C2/C(=O)N(C(c3ccccc3)c3ccccc3)c3ccccc32)c2c(C)ccc(C(C)C)cc1-2` [Compound 14, 1-Benzhydryl-3-(5-isopropyl-3,8-dimethyl-azulen-1-ylmethylene)-1,3-dihydro-indol-2-one], the inhibition at 1 µM came out at 6% in test [1], 31.5% in test [2] and 69.2% in test [3]. Also, the inhibition at 0.1 µM in test [2] was 31.5%; in test [3] it was 17.1%.
In the case of `O=C1/C(=C\c2ccc3cccccc2-3)c2ccccc2N1C(c1ccccc1)c1ccccc1` [Compound 4, 3-Azulen-1-ylmethylene-1-benzhydryl-1,3-dihydro-indol-2-one], the inhibition at 1 µM in test [1] stood at 14.7%.
As usually defined, the IC50 is the concentration that gives 50% inhibition. As for `Cc1cc(/C=C2/C(=O)Nc3ccc(F)cc32)c2ccccc(OCCCN(C)C)c1-2` [Compound 68, 3-[4-(3-Dimethylamino-propoxy)-3-methyl-azulen-1-ylmethylene]-5-fluoro-1,3-dihydro-indol-2-one], the inhibition at 0.1 µM in test [1] turned out to be 74.3%; in test [2], 34.4%; in test [3], 38.6%. Further, the inhibition at 1 µM turned out to be 96.8% in test [1], 34.4% in test [2] and 63.8% in test [3]. The half-maximal inhibitory concentration (IC50) in test [1] was 25.3 nM; in test [2], > 1000 nM; in test [3] (read-out: KDR kinase inhibition (IC50)), 500 nM.
On to `Cc1c2cccccc-2c(C)c1/C=C1/C(=O)Nc2ccc(F)cc21` [Compound 66, 3-(1,3-Dimethyl-azulen-2-ylmethylene)-5-fluoro-1,3-dihydro-indol-2-one], for which the inhibition at 0.1 µM came out at 15.8% in test [1], 33.7% in test [2] and 14.8% in test [3]. Moreover, the inhibition at 1 µM in test [1] turned out to be 19.6%; in test [2], 33.7%; in test [3], 40.6%.
In the case of `Cc1cc(C=C2C(=O)Nc3ccc(C(F)(F)F)cc32)c2ccccc(OCCCN(C)C)c1-2` [Compound 100, 3-[4-(3-Dimethylamino-propoxy)-3-methyl-azulen-1-ylmethylene]-5-trifluoromethyl-1,3-dihydro-indol-2-one], the inhibition at 0.1 µM in test [1] worked out at 64.9%; in test [2], 48.1%; in test [3], 33.3%. Moreover, the inhibition at 1 µM in test [1] amounted to 89.1%; in test [2], 48.1%; in test [3], 73.2%.
`O=C1Nc2ccc(F)cc2/C1=C\c1ccccc2cccc1-2` [Compound 52, 3-Azulen-4-ylmethylene-5-fluoro-1,3-dihydro-indol-2-one]: the inhibition at 0.1 µM was 14.1% in test [1], 20.2% in test [2] and 12.6% in test [3]. The inhibition at 1 µM was determined as 44.2% in test [1], 20.2% in test [2] and 9.1% in test [3].
Take `Cc1cc(/C=C2\C(=O)Nc3ccc(F)cc32)c2ccccc(OCCCN(C)C)c1-2` [Compound 95, 3-[4-(3-Dimethylamino-propoxy)-3-methyl-azulen-1-ylmethylene]-5-fluoro-1,3-dihydro-indol-2-one]: in test [1], the inhibition at 0.1 µM was 70.9%, the inhibition at 1 µM came to 98.4% and the IC50 came out at 9.3 nM. In addition, in test [2], the inhibition at 0.1 µM is 65.1%, the inhibition at 1 µM amounted to 65.1% and the concentration for half-maximal inhibition (IC50) is 158 nM. Also, in test [3], the inhibition at 0.1 µM amounted to 35.5% and the inhibition at 1 µM stood at 93.6%.
On to `COC(=O)c1cc(/C=C2\C(=O)Nc3ccc(F)cc32)c2cccccc1-2` [Compound 76, 3-(5-Fluoro-2-oxo-1,2-dihydro-indol-3-ylidenemethyl)-azulene-1-carboxylic acid methyl ester], for which, in test [2], the inhibition at 0.1 µM was 28.2% and the inhibition at 1 µM amounted to 28.2%.
For `COc1ccc(CN2C(=O)/C(=C/c3cc(C)c4cc(C(C)C)ccc(C)c3-4)c3ccccc32)cc1` [Compound 73, 3-(5-Isopropyl-3,8-dimethyl-azulen-1-ylmethylene)-1-(4-methoxy-benzyl)-1,3-dihydro-indol-2-one], the inhibition at 0.1 µM in test [1] worked out at 33.9%; in test [3], 40.4%. Besides, the inhibition at 1 µM stood at 32.8% in test [1] and 52.4% in test [3].
For the compound `Cc1cc(C=C2C(=O)Nc3ccc(S(=O)(=O)Nc4ccccn4)cc32)c2cccccc1-2` [Compound 77], in test [2], the inhibition at 0.1 µM amounted to 23.4% and the inhibition at 1 µM was 23.4%.
On to `O=C1Nc2ccc(Cl)cc2/C1=C/c1ccc2cccccc1-2` [Compound 23, 3-Azulen-1-ylmethylene-5-chloro-1,3-dihydro-indol-2-one], for which the inhibition at 0.1 µM in test [1] stood at 18.6%; in test [3] it was 39.5%. The inhibition at 1 µM came out at 43.4% in test [1] and 28.3% in test [3].
As for `COC(=O)C1C2=CC=CC=C(OC)C2=C(/C=C2\C(=O)Nc3ccc(F)cc32)C1OC` (centres unmarked) [Compound 69, 3-(5-Fluoro-2-oxo-1,2-dihydro-indol-3-ylidenemethyl)-2,4-dimethoxy-1,2-dihydro-azulene-1-carboxylic acid methyl ester], in test [1], the inhibition at 0.1 µM is 17.2%. Moreover, in test [3], the inhibition at 0.1 µM turned out to be 32.9% and the inhibition at 1 µM was determined as 42.5%.
